Consider 6 substances from patent US20070155955A1, “Amylin aggregation inhibitors and use thereof” (APPLIED RESEARCH SYSTEMS ARS HOLDING N.V., priority 2003, published 2007).

A short description of this data set: In vitro peptide solubility assay (qualitative, pellet after centrifugation). Type of data set: physicochemical. As to conditions: Tris buffer, pH 7.4; read-out: Solubilty. Here is the method:
Solubility of peptides of the invention was obtained using a qualitative assay where the peptide was dissolved in Tris buffer, pH 7.4 at 1, 5, or 10 mg/ml, vortexed briefly, and then centrifuged at 16,000 g for 30 min.

No end group written: not given here. A value given as a limit tells only on which side of the number the result lay.

Turning to “Ac-DFGAPL-NH2 (N-terminus and C-terminus assumed) [SEQ ID NO. 3]”, the solubility was > 10000 µg/mL.

Take DFGAILD [SEQ ID NO. 12]: the solubility is ≥ 2000 µg/mL.

For DFGAPL [SEQ ID NO. 2], the solubility is > 10000 µg/mL.

For the substance DFGAPLD [SEQ ID NO. 4], the solubility is > 10000 µg/mL.

Turning to NFGAILS [SEQ ID NO. 10], the solubility is < 200 µg/mL.

Consider NFGAPLS [SEQ ID NO. 11], for which the solubility is < 1000 µg/mL.
